In patent publication US10292949B2, “Pharmaceutical composition comprising rimeporide for treating diseases associated with insulin resistance and β-cell dysfunction” (Merck Patent GmbH, priority 2008, dated 2019):
Where a name gives a salt, the structure may show the parent alone.

Key:
Format in all cases: in vivo, rat
[1] = Pharmacological Study Report I: body weight of ZF (fa/fa) rats during 4 weeks of treatment; settings: age 8-12 weeks, Compound A 150 mg/kg gavage twice daily, Compound B 40 mg/kg/day in chow
Procedure: (§1) Obese, insulin resistant ZF (fa/fa) rats, which are treated from the age of 8-12 weeks, were used as IR model. Rats were housed with a 12-h light/dark cycle and free access to food and water unless otherwise noted. Studies were approved by the Institutional Animal Care and Use Committee. There were a total of 18 animals in the study (8 week-old males, provided by Charles River). Animals were randomized into 3 groups (vehicle group, Compound A group, Compound B group, n=6 per group) based on random glucose level at the beginning of the study: • Group 1: ZF rats (fa/fa) (n=6), compound A (150 mg/kg via gavage) • Group 2: ZF rats (fa/fa) (n=6), compound B (40 mg/kg/day as admixture to the chow) • Group 3: ZF rats (fa/fa) (n=6), vehicle treatment (control chow, vehicle gavage)
(§2) Group 1 and 3 animals were treated with compound A or vehicle (water) for 4 weeks (from age 8-12 weeks) via oral gavage, twice daily. Chow containing compound B was fed to Group 2 ad lib. Group 1 and Group 3 were fed with chow without compound B ad lib.

[2] = tested on: Obese, insulin resistant ZF (fa/fa) rats; assay: Pharmacological Study Report I: deuterated glucose disposal test (2H-GDT); settings: 4 weeks, Compound B 40 mg/kg/day in chow
Procedure: as §1, §2
Rats underwent a 4 hour fast. […] At t=0, the blood glucose concentrations were determined with a glucometer, and a blood sample was obtained for determination of base line insulin and H2O^18 dilution. […]
One hundred micro liter aliquots of plasma samples inside the cape of an inverted vial were placed in a heating blocked filled with glass beads at 70° C. overnight and the water distillate inside the vial was collected. The deuterium and oxygen-18 isotope ratios of the blood of plasma samples were determined using a Thermo Finnigan High Temperature Conversion/Elemental Analyzer coupled with a Thermo Finnigan MAT 253 IRMS via a Conflo-III Interface. […] The deuterium isotope abundance is first calculated in δ 2H values relative to the international VSMOW standard, and then transformed to APE by using a calibration curve of standards with known enrichments. The ^2H2O enrichment was calculated for rats at 30 min after the glucose load. ^2H2O enrichment was converted to mmoles by multiplying enrichment by the TBW pool size and dividing by 20 (MW ^2H2O). […]

[3] = Pharmacological Study Report II: body weight and food intake; settings: for Average food consumption, Week 1 / Average food consumption, Week 2 / Average food consumption, Week 3 / Average food consumption, Week 4: fa/fa rats, average +/- SD
Procedure: (§3) Thirty-six obese Zucker fa/fa and six lean Zucker fa/? male rats obtained from Charles River, were housed under normal vivarium conditions on a 12 hour light/dark cycle. The rats were kept two to a cage with food and water available ad lib, except during the weekly, 4 hour fasts. Water continued to be available during these fasts.
(§4) Compound A corresponds to Cariporide. Compound B corresponds to 2-Methyl-4,5-di-(methylsulfonyl)-benzoyl-guanidine hydrochloride hydrate. Compounds A and B were supplied in powder form by Merck Serono. Drugs were incorporated into a pelleted diet (LabDiet, 5001) by Research Diets, Inc (New Brunswick, N.J.) at concentrations of 0.44 g/kg or 0.88 g/kg of diet to yield approximate doses of 40 or 80 mg/kg. The concentration was calculated based on the assumption that a 300 g rat would eat about 30 g/d of chow. The same chow, but without drug, was fed to rats of both the lean and fa/fa control group animals.
(§5) One week prior to the start of the study, all rats were weighed. After a 4 hour fast, a blood sample was obtained for the determination of blood glucose, insulin, and glycosylated hemoglobin levels (HbA1c). Animals were then sorted on the basis of these parameters into the groups listed below. Rats were eight weeks of age at the onset of treatment.
(§6) • 1. ZF rats (fa/fa) (n=6) chow without drug • 2. ZF rats (fa/fa) (n=6) compound A (40 mg/kg/day) • 3. ZF rats (fa/fa) (n=6) compound A (80 mg/kg/day) • 4. ZF rats (fa/fa) (n=6) compound B (40 mg/kg/day) • 5. ZF rats (fa/fa) (n=6) compound B (80 mg/kg/day) • 6. lean Zucker rats (fa/?) (n=6) chow without drug Dosing Regime
(§7) Treatment appropriate chow was continuously available for 4 weeks except during scheduled 4 h fasts conducted once per week.
individual body weights were determined once per week. Average food intake per cage was also determined once per week and the individual rat consumption was calculated by dividing the cage average by 2 (rats housed 2/cage).

obese Zucker fa/fa rats [4] = assay: Pharmacological Study Report II: random and fasting (4 h) blood glucose and plasma insulin levels; settings: Mean ± SD; for Change in Insulin (fasting): change over the 4 week treatment period; for Week 4 Insulin (fasting): week 4 of treatment
Procedure: as §3, §4, §5, §6, §7
Both random and fasting (4 h) blood glucose levels were determined using a hand-held glucometer (OneTouch Ultra, Lifescan, Inc. Milapitas, Calif.) on blood obtained from tail capillary samples. Plasma insulin levels were determined by a rat specific ELISA (Ultra Sensitive Rat Insulin ELISA Kit, Crystal Chem, Inc., Chicago, Ill.). The 4 h fast period started at 9 a.m. and ended after a blood draw at 1 p.m.

obese Zucker fa/fa rats [5] = assay: Pharmacological Study Report II: HbA1c levels; settings: Mean ± SD; for Base line HbA1c: baseline; for Change in HbA1c: change over the 4 week treatment period; for Week 4 HbA1c: week 4 of treatment
Procedure: as §3, §4, §5, §6, §7
HbA1c level were determined using a DCA 2000 analyzer (Bayer Healthcare LLC, Elkhart Ind.) prior to beginning the study and again at the end of the 4th week treatment period.

[H]/N=C(\N)NC(=O)c1cc(S(C)(=O)=O)c(S(C)(=O)=O)cc1C [Compound B, 2-Methyl-4,5-di-(methylsulfonyl)-benzoyl-guanidine hydrochloride hydrate]
Body weight, difference among vehicle- and compound-treated groups [1]: no significant differences | Insulin sensitivity (% 2H2O recovery per insulin AUC), increase compared to pre-treatment values [2]: ~4 fold | Average weekly food intake vs chow fed fa/fa controls ([3]; Zucker fa/fa rats, 4 weeks, 40 or 80 mg/kg in chow): did not differ significantly | Average food consumption, Week 1 ([3]; 40 mg/kg in chow): 32.1 +/− 3.2 grams | Average food consumption, Week 2 ([3]; 40 mg/kg in chow): 33.8 +/− 2.9 grams | Average food consumption, Week 3 ([3]; 40 mg/kg in chow): 31.7 +/− 2.9 grams | Average food consumption, Week 4 ([3]; 40 mg/kg in chow): 33.6 +/− 4.4 grams | Average food consumption, Week 1 ([3]; 80 mg/kg in chow): 31.8 +/− 1.4 grams | Average food consumption, Week 2 ([3]; 80 mg/kg in chow): 32.9 +/− 1.9 grams | Average food consumption, Week 3 ([3]; 80 mg/kg in chow): 33.0 +/− 0.7 grams | Average food consumption, Week 4 ([3]; 80 mg/kg in chow): 34.0 +/− 2.9 grams | Baseline Insulin (fasting) (obese Zucker fa/fa rats [4]; 40 mg/kg group): 14.7 ± 2.7 ng/mL | Baseline Insulin (fasting) (obese Zucker fa/fa rats [4]; 80 mg/kg group): 16.2 ± 11.2 ng/mL | Change in Insulin (fasting) (obese Zucker fa/fa rats [4]; 40 mg/kg): -0.2 ± 4.4 ng/mL | Change in Insulin (fasting) (obese Zucker fa/fa rats [4]; 80 mg/kg): -3.2 ± 11.2 ng/mL | Week 4 Insulin (fasting) (obese Zucker fa/fa rats [4]; 40 mg/kg in chow): 14.5 ± 5.5 ng/mL | Week 4 Insulin (fasting) (obese Zucker fa/fa rats [4]; 80 mg/kg in chow): 13.1 ± 8.2 ng/mL | Base line HbA1c (obese Zucker fa/fa rats [5]; 40 mg/kg group): 3.8 ± 0.2% | Base line HbA1c (obese Zucker fa/fa rats [5]; 80 mg/kg group): 4.0 ± 0.4% | Change in HbA1c (obese Zucker fa/fa rats [5]; 40 mg/kg): 0.4 ± 0.2% | Change in HbA1c (obese Zucker fa/fa rats [5]; 80 mg/kg): 0.8 ± 0.7% | Week 4 HbA1c (obese Zucker fa/fa rats [5]; 40 mg/kg in chow): 4.3 ± 0.3% | Week 4 HbA1c (obese Zucker fa/fa rats [5]; 80 mg/kg in chow): 4.8 ± 0.4 %
